Assay results taken from ChEMBL document CHEMBL2069287, “Salidroside protects human erythrocytes against hydrogen peroxide-induced apoptosis” (J Nat Prod, 2012).
Activity calls are given as the source filed them. The rule behind the calls is not given here.

What was measured:
Erythrocyte [1] = experiment: Cytoprotective activity against H202-induced eryptosis in human erythrocytes assessed as viable cells at 100 uM after 24 hrs by PE-annexinV/calcein flow cytometric assay (reference value: 63.38%); type: functional; settings: read-out: Activity
Erythrocyte [2] = experiment: Cytoprotective activity against H202-induced apoptosis in human erythrocytes assessed as decrease in phosphatidylserine externalization after 24 hrs by PE-annexinV/Fluor4 flow cytometric analysis; type: functional, cell-based
Erythrocyte [3] = experiment: Cytoprotective activity in human erythrocytes assessed as protection against H202-induced hemolysis at 50 to 100 uM from 2 to 24 hrs by spectrophotometry; type: functional, cell-based
[4] = Antioxidant activity in human erythrocytes assessed as decrease in H202-induced ROS production at 300 uM after 24 hrs by DCF-based flow cytometric analysis (reference value: 68.32%); type: functional, Erythrocyte; parameters: scale not given: the % may be the effect or the level left
Erythrocyte [5] = experiment: Cytoprotective activity in human erythrocytes assessed as decrease in H202-induced caspase-3-mediated FAM-DEVD-FMK cleavage at 100 uM after 24 hrs by fluorometric assay (reference value: 51.22%); type: functional; parameters: scale not given: the % may be the effect or the level left
Erythrocyte [6] = experiment: Cytoprotective activity against H202-induced eryptosis in human erythrocytes assessed as late apoptotic cells at 300 uM after 24 hrs by PE-annexinV/calcein flow cytometric assay (reference value: 0.13%); type: functional
Erythrocyte [7] = experiment: Cytoprotective activity in human erythrocytes assessed as decrease in caspase-3-mediated FAM-DEVD-FMK cleavage at 300 uM after 24 hrs by fluorometric assay (reference value: 0.28%); type: functional; parameters: scale not given: the % may be the effect or the level left
[8] = Induction of eryptosis in human erythrocytes assessed as late apoptotic cells at 300 uM after 24 hrs by PE-annexinV/calcein flow cytometric assay (reference value: 0%); type: cell-based; settings: erythrocyte
Erythrocyte [9] = experiment: Cytoprotective activity in human erythrocytes assessed as decrease in caspase-3-mediated FAM-DEVD-FMK cleavage at 100 uM after 24 hrs by fluorometric assay (reference value: 0.28%); type: functional; parameters: scale not given: the % may be the effect or the level left
Erythrocyte [10] = experiment: Cytoprotective activity against H202-induced eryptosis in human erythrocytes assessed as late apoptotic cells at 100 uM after 24 hrs by PE-annexinV/calcein flow cytometric assay (reference value: 0.13%); type: functional
Erythrocyte [11] = experiment: Cytoprotective activity against H202-induced eryptosis in human erythrocytes assessed as early apoptotic cells at 300 uM after 24 hrs by PE-annexinV/calcein flow cytometric assay (reference value: 9.34%); type: functional
[12] = Induction of eryptosis in human erythrocytes assessed as early apoptotic cells at 300 uM after 24 hrs by PE-annexinV/calcein flow cytometric assay (reference value: 2.59%); type: cell-based; settings: erythrocyte
Erythrocyte [13] = experiment: Cytoprotective activity in human erythrocytes assessed as decrease in H202-induced caspase-3-mediated FAM-DEVD-FMK cleavage after 24 hrs by fluorometric assay; type: functional, cell-based
[14] = Induction of eryptosis in human erythrocytes assessed as early apoptotic cells at 100 uM after 24 hrs by PE-annexinV/calcein flow cytometric assay (reference value: 2.59%); type: cell-based; settings: erythrocyte
[15] = Antioxidant activity in human erythrocytes assessed as decrease in H202-induced ROS production at 100 uM after 24 hrs by DCF-based flow cytometric analysis (reference value: 68.32%); type: functional, Erythrocyte; parameters: scale not given: the % may be the effect or the level left
[16] = Induction of eryptosis in human erythrocytes assessed as viable cells at 100 uM after 24 hrs by PE-annexinV/calcein flow cytometric assay (reference value: 97.21%); type: cell-based, Erythrocyte; settings: read-out: Activity
Erythrocyte [17] = experiment: Cytoprotective activity against H202-induced apoptosis in human erythrocytes assessed as decrease in cytosolic free calcium level after 24 hrs by PE-annexinV/Fluor4 flow cytometric analysis; type: functional, cell-based
Erythrocyte [18] = experiment: Cytoprotective activity against H202-induced eryptosis in human erythrocytes assessed as very early apoptotic cells at 100 uM after 24 hrs by PE-annexinV/calcein flow cytometric assay (reference value: 27.15%); type: functional
[19] = Toxicity in human erythrocytes assessed as hemolysis up to 400 uM after 24 hrs by spectrophotometry; type: cell-based; settings: erythrocyte
[20] = Induction of eryptosis in human erythrocytes assessed as very early apoptotic cells at 100 uM after 24 hrs by PE-annexinV/calcein flow cytometric assay (reference value: 0.2%); type: cell-based; settings: erythrocyte
Erythrocyte [21] = experiment: Cytoprotective activity in human erythrocytes assessed as decrease in ionomycin-induced cytosolic free calcium level at 100 uM after 24 hrs by Fluo4 staining-based assay (reference value: 1.76%); type: functional; parameters: scale not given: the % may be the effect or the level left
Erythrocyte [22] = experiment: Cytoprotective activity against H202-induced eryptosis in human erythrocytes assessed as early apoptotic cells at 100 uM after 24 hrs by PE-annexinV/calcein flow cytometric assay (reference value: 9.34%); type: functional
Erythrocyte [23] = experiment: Cytoprotective activity in human erythrocytes assessed as decrease in ionomycin-induced cytosolic free calcium level at 300 uM after 24 hrs by Fluo4 staining-based assay (reference value: 57.79%); type: functional; parameters: scale not given: the % may be the effect or the level left
[24] = Toxicity in human erythrocytes assessed as hemolysis up to 800 uM after 2 hrs by spectrophotometry; type: cell-based; settings: erythrocyte
[25] = Induction of eryptosis in human erythrocytes assessed as viable cells at 300 uM after 24 hrs by PE-annexinV/calcein flow cytometric assay (reference value: 97.21%); type: cell-based, Erythrocyte; settings: read-out: Activity
Erythrocyte [26] = experiment: Cytoprotective activity in human erythrocytes assessed as decrease in STS-mediated caspase3 activation at 300 uM after 24 hrs by fluorimetric assay (reference value: 58.78%); type: functional; parameters: scale not given: the % may be the effect or the level left
Erythrocyte [27] = experiment: Cytoprotective activity in human erythrocytes assessed as decrease in H202-induced caspase-3-mediated FAM-DEVD-FMK cleavage at 300 uM after 24 hrs by fluorometric assay (reference value: 51.22%); type: functional; parameters: scale not given: the % may be the effect or the level left
Erythrocyte [28] = experiment: Antioxidant activity in human erythrocytes assessed as decrease in H202-induced ROS production after 24 hrs by DCF-based flow cytometric analysis; type: functional, cell-based
Erythrocyte [29] = experiment: Cytoprotective activity against H202-induced eryptosis in human erythrocytes assessed as very early apoptotic cells at 300 uM after 24 hrs by PE-annexinV/calcein flow cytometric assay (reference value: 27.15%); type: functional
Erythrocyte [30] = experiment: Cytoprotective activity against H202-induced eryptosis in human erythrocytes assessed as viable cells at 300 uM after 24 hrs by PE-annexinV/calcein flow cytometric assay (reference value: 63.38%); type: functional; settings: read-out: Activity
[31] = Induction of eryptosis in human erythrocytes assessed as very early apoptotic cells at 300 uM after 24 hrs by PE-annexinV/calcein flow cytometric assay (reference value: 0.2%); type: cell-based; settings: erythrocyte
Erythrocyte [32] = experiment: Cytoprotective activity in human erythrocytes assessed as protection against H202-induced hemolysis from 2 to 24 hrs by spectrophotometry; type: functional, cell-based
[33] = Induction of eryptosis in human erythrocytes assessed as late apoptotic cells at 100 uM after 24 hrs by PE-annexinV/calcein flow cytometric assay (reference value: 0%); type: cell-based; settings: erythrocyte
Erythrocyte [34] = experiment: Cytoprotective activity in human erythrocytes assessed as decrease in STS-mediated caspase3 activation at 100 uM after 24 hrs by fluorimetric assay (reference value: 58.78%); type: functional; parameters: scale not given: the % may be the effect or the level left

In the case of `OC[C@H]1O[C@@H](OCCc2ccc(O)cc2)[C@H](O)[C@@H](O)[C@@H]1O` [SALIDROSIDE], the viability at 100 µM (Erythrocyte [1]) is reported as 70.4%, the Activity (Erythrocyte [2]) is reported as “Dose-dependent effect” and the Activity (Erythrocyte [3]) is reported as “Active”. The Activity [4] was 51.39%, the Activity (Erythrocyte [5]) was 42.12% and the Activity (Erythrocyte [6]) was 0.11%. The Activity (Erythrocyte [7]) was 0.22%, the Activity [8] was 0% and the Activity (Erythrocyte [9]) was 0.23%. The Activity (Erythrocyte [10]) was 0.18%, the Activity (Erythrocyte [11]) was 11.08% and the Activity [12] was 2.46%. For the same molecule, the Activity (Erythrocyte [13]) was “Dose-dependent effect”, the Activity [14] was 2.38% and the Activity [15] was 58.82%. The viability at 24 h, 100 µM [16] was 97.5%, the Activity (Erythrocyte [17]) was “Dose-dependent effect” and the Activity (Erythrocyte [18]) was 17.01%. The Activity [19] was “Non-toxic”, the Activity [20] was 0.14% and the Activity (Erythrocyte [21]) was 48.77%. The Activity (Erythrocyte [22]) was 12.38%, the Activity (Erythrocyte [23]) was 46.24% and the Activity [24] was “Non-toxic”. The viability at 24 h, 300 µM [25] was 97.5%, the Activity (Erythrocyte [26]) was 47.16% and the Activity (Erythrocyte [27]) was 37.71%. The Activity (Erythrocyte [28]) was “Dose-dependent effect”, the Activity (Erythrocyte [29]) was 14.16% and the viability at 300 µM (Erythrocyte [30]) was 74.7%. The Activity [31] was 0.04%, the Activity (Erythrocyte [32]) was “Dose-dependent effect” and the Activity [33] was 0%. For the same molecule, the Activity (Erythrocyte [34]) was 49.38%.
